According to ChEMBL document CHEMBL4609984, “Design, synthesis and biological evaluation of imidazole and oxazole fragments as HIV-1 integrase-LEDGF/p75 disruptors and inhibitors of microbial pathogens” (Bioorg Med Chem, 2020):
In brackets after ≈: the same amount, converted by molar mass. Activity calls are given as the source filed them. The rule behind the calls is not given here.

Key:
[1] = biological target: Human immunodeficiency virus type 1 integrase (Human immunodeficiency virus 1) (UniProt Q7ZJM1); test: Inhibition of HIV-1 integrase assessed as inhibition of interaction of HIV-1 IN with LEDGF/p75 (unknown origin) at 10 uM incubated for 1 hr by Alphascreen TruHits counter assay
Sequence of Human immunodeficiency virus type 1 integrase (Human immunodeficiency virus 1) (Q7ZJM1 as listed by the source): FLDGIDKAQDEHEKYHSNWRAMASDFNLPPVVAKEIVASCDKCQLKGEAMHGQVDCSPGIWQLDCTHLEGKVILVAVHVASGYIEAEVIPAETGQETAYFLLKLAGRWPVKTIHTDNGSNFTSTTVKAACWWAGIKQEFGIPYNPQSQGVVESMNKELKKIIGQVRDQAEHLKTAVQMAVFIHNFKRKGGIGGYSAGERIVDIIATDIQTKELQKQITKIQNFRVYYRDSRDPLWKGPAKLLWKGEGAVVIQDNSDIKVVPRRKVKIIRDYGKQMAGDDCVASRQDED

[2] = Cytotoxicity against human MT4 cells assessed as reduction in cell viability incubated for 5 days by MTS assay; assay type: cell-based
[3] = biological target: Human immunodeficiency virus type 1 integrase (Human immunodeficiency virus 1) (UniProt Q7ZJM1); test: Inhibition of HIV-1 integrase assessed as inhibition of interaction of HIV-1 IN with LEDGF/p75 (unknown origin) at 10 uM preincubated with enzyme for 30 mins followed by further incubation with LEDGF/p75 for 1 hr by Alphascreen assay relative to control
[4] = biological target: Human immunodeficiency virus type 1 integrase (Human immunodeficiency virus 1, UniProt Q7ZJM1); test: Inhibition of HIV-1 integrase assessed as inhibition of interaction of HIV-1 IN with LEDGF/p75 (unknown origin) preincubated with enzyme for 30 mins followed by further incubation with LEDGF/p75 for 1 hr by Alphascreen assay
Sequence of Human immunodeficiency virus type 1 integrase (Q7ZJM1 whole entry): as the sequence (Q7ZJM1 as listed by the source) above

MT4 = test: Cytotoxicity against human MT4 cells assessed as reduction in cell viability at 10 uM incubated for 5 days by MTS assay; assay type: cell-based; conditions: mt4, 120 h
[5] = tested on: Human immunodeficiency virus 1; test: Antiviral activity against HIV-1 NL4-3 infected in human MT4 cells assessed as reduction in p24 gag protein at 10 uM incubated for 5 days by ELISA; assay type: functional, organism-based
[6] = tested on: Human immunodeficiency virus 1; test: Antiviral activity against HIV-1 NL4-3 infected in human MT4 cells assessed as reduction in p24 gag protein incubated for 5 days by ELISA; assay type: functional, organism-based; conditions: Human immunodeficiency virus 1, NL4-3, MT4, 120 h
Candida tropicalis = test: Antimicrobial activity against Candida tropicalis ATCC 750 assessed as reduction in fungal growth incubated for 48 hrs by INT dye based assay; assay type: functional
Escherichia coli = test: Antibacterial activity against Escherichia coli ATCC 8739 assessed as reduction in bacterial growth incubated for 24 hrs by INT dye based assay; assay type: functional; conditions: ATCC 8739, 24 h
Pseudomonas aeruginosa = test: Antibacterial activity against Pseudomonas aeruginosa ATCC 27858 assessed as reduction in bacterial growth incubated for 24 hrs by INT dye based assay; assay type: functional; conditions: ATCC 27858, 24 h
Bacillus cereus = test: Antibacterial activity against Bacillus cereus ATCC 11779 assessed as reduction in bacterial growth incubated for 24 hrs by INT dye based assay; assay type: functional; conditions: ATCC 11779, 24 h
Staphylococcus aureus = test: Antibacterial activity against Staphylococcus aureus ATCC 25923 assessed as reduction in bacterial growth incubated for 24 hrs by INT dye based assay; assay type: functional; conditions: ATCC 25923, 24 h

Row | Molecule | inhibition [3] | Activity (MT4) | also measured
1 | COc1ccc(-c2cncn2-c2ccc(Br)cc2)c(OC)c1 | 52% | Non-Toxic | inhibition [1]: Active; CC50 at 120 h [2]: 55.5 µM; IC50 [4]: 7 µM; Activity [5]: inactive; EC50 [6]: > 10 µM
2 | NYSTATIN | – | – | MIC (Candida tropicalis): 1.25 µg/mL
3 | CCCCn1cncc1-c1ccc(F)cc1 | 30% | Non-Toxic | –
4 | CCCCn1cncc1-c1ccc2c(c1)OCCO2 | 21% | Non-Toxic | –
5 | CCCCn1cncc1-c1ccc(OC)cc1OC | 26% | Non-Toxic | –
6 | c1ncc(-c2ccc3c(c2)OCO3)o1 | 35% | Non-Toxic | –
7 | Brc1ccc(-n2cncc2-c2ccc3c(c2)OCO3)cc1 | 48% | Non-Toxic | –
8 | CCCCn1cncc1-c1ccc([N+](=O)[O-])cc1 | 27% | Non-Toxic | –
9 | c1ccc(Cn2cncc2-c2ccc3c(c2)OCO3)cc1 | 43% | Non-Toxic | –
10 | Clc1ccccc1-c1cnco1 | 33% | Non-Toxic | –
11 | c1ccc(-c2cnco2)cc1 | 31% | Non-Toxic | –
12 | COc1ccc(-c2cncn2C2CC2)c(OC)c1 | 28% | Non-Toxic | –
13 | c1cc2c(cc1-c1cncn1C1CCCCC1)OCO2 | 40% | Non-Toxic | –
14 | Fc1ccc(-c2cncn2C2CC2)cc1 | 31% | Non-Toxic | –
15 | CCCCn1cncc1-c1cccc(OC)c1 | 51% | Non-Toxic | MIC (Escherichia coli): 125 µg/mL (≈ 543 µM); MIC (Candida tropicalis; ATCC 750, 48 h): 62.5 µg/mL (≈ 271 µM); inhibition [1]: Active; MIC (Pseudomonas aeruginosa): > 250 µg/mL; MIC (Bacillus cereus): 62.5 µg/mL (≈ 271 µM); CC50 at 120 h [2]: 29.6 µM; MIC (Staphylococcus aureus): > 250 µg/mL; IC50 [4]: 30.5 µM; Activity [5]: inactive; EC50 [6]: > 10 µM
16 | Clc1ccccc1-c1cncn1C1CCCCC1 | 31% | Non-Toxic | –
17 | CCCCn1cncc1-c1ccccc1Cl | 37% | Non-Toxic | –
18 | CCCCn1cncc1-c1ccccc1[N+](=O)[O-] | 30% | Non-Toxic | –
19 | COc1cccc(-c2cncn2Cc2ccccc2)c1 | 21% | Non-Toxic | –
20 | O=[N+]([O-])c1ccc(-c2cnco2)cc1 | 33% | Non-Toxic | –
21 | Fc1ccc(-c2cnco2)cc1 | 23% | Non-Toxic | –

Row | Molecule | inhibition [3] | Activity (MT4) | also measured
22 | Fc1ccc(-c2cncn2-c2ccc(Br)cc2)cc1 | 52% | Non-Toxic | inhibition [1]: Active; CC50 at 120 h [2]: 48 µM; IC50 [4]: 25.1 µM; Activity [5]: inactive; EC50 [6]: > 10 µM
23 | O=[N+]([O-])c1ccccc1-c1cnco1 | 30% | Non-Toxic | –
24 | Cc1ccc(S(=O)(=O)[C@H]2N=CO[C@@H]2c2ccccc2[N+](=O)[O-])cc1 (racemic) | 38% | Non-Toxic | –
25 | Fc1ccc(-c2cncn2C2CCCCC2)cc1 | 45% | Non-Toxic | –
26 | COc1cccc(-c2cnco2)c1 | 33% | Non-Toxic | –
27 | Cc1ccc(S(=O)(=O)[C@H]2N=CO[C@@H]2c2ccccc2)cc1 (racemic) | 34% | Non-Toxic | –
28 | O=C(O)c1cn(C2CC2)c2cc(N3CCNCC3)c(F)cc2c1=O [CIPROFLOXACIN] | – | – | MIC (Escherichia coli): 0.313 µg/mL (≈ 0.945 µM); MIC (Pseudomonas aeruginosa): 0.313 µg/mL (≈ 0.945 µM); MIC (Bacillus cereus): 0.156 µg/mL (≈ 0.471 µM); MIC (Staphylococcus aureus): 0.156 µg/mL (≈ 0.471 µM)
29 | COc1ccc(-c2cncn2Cc2ccccc2)c(OC)c1 | 17% | Non-Toxic | MIC (Escherichia coli): > 250 µg/mL; MIC (Candida tropicalis; ATCC 750, 48 h): 250 µg/mL (≈ 849 µM); MIC (Pseudomonas aeruginosa): > 250 µg/mL; MIC (Bacillus cereus): 125 µg/mL (≈ 425 µM); MIC (Staphylococcus aureus): 62.5 µg/mL (≈ 212 µM)
30 | O=[N+]([O-])c1ccccc1-c1cncn1C1CCCCC1 | – | Non-Toxic | –
31 | Fc1ccc(-c2cncn2Cc2ccccc2)cc1 | 25% | Non-Toxic | MIC (Escherichia coli): > 250 µg/mL; MIC (Candida tropicalis; ATCC 750, 48 h): > 250 µg/mL; MIC (Pseudomonas aeruginosa): > 250 µg/mL; MIC (Bacillus cereus): 125 µg/mL (≈ 495 µM); MIC (Staphylococcus aureus): 62.5 µg/mL (≈ 248 µM)
32 | COc1cccc(-c2cncn2C2CC2)c1 | 40% | Non-Toxic | –
33 | CC(C)(C)c1ccc(-c2cncn2C2CCCCC2)cc1 | 62% | Non-Toxic | MIC (Escherichia coli): > 250 µg/mL; MIC (Candida tropicalis; ATCC 750, 48 h): 31.3 µg/mL (≈ 111 µM); inhibition [1]: Active; MIC (Pseudomonas aeruginosa): > 250 µg/mL; MIC (Bacillus cereus): 15.6 µg/mL (≈ 55.2 µM); CC50 at 120 h [2]: 21.8 µM; MIC (Staphylococcus aureus): 62.5 µg/mL (≈ 221 µM); IC50 [4]: 14.6 µM; Activity [5]: inactive; EC50 [6]: > 10 µM
34 | COc1ccc(-c2cnco2)c(OC)c1 | 42% | Non-Toxic | –
35 | O=[N+]([O-])c1ccc(-c2cncn2C2CCCCC2)cc1 | – | Non-Toxic | –
36 | COc1ccc(-c2cncn2C2CCCCC2)c(OC)c1 | 40% | Non-Toxic | MIC (Escherichia coli): > 250 µg/mL; MIC (Candida tropicalis; ATCC 750, 48 h): 125 µg/mL (≈ 436 µM); MIC (Pseudomonas aeruginosa): > 250 µg/mL; MIC (Bacillus cereus): 250 µg/mL (≈ 873 µM); MIC (Staphylococcus aureus): 62.5 µg/mL (≈ 218 µM)
37 | COc1cccc(-c2cncn2C2CCCCC2)c1 | 55% | Non-Toxic | MIC (Escherichia coli): > 250 µg/mL; MIC (Candida tropicalis; ATCC 750, 48 h): 62.5 µg/mL (≈ 244 µM); inhibition [1]: Active; MIC (Pseudomonas aeruginosa): > 250 µg/mL; MIC (Bacillus cereus): 62.5 µg/mL (≈ 244 µM); CC50 at 120 h [2]: 27.7 µM; MIC (Staphylococcus aureus): 62.5 µg/mL (≈ 244 µM); IC50 [4]: 21.9 µM; Activity [5]: inactive; EC50 [6]: > 10 µM
38 | CCCCn1cncc1-c1ccc2c(c1)OCO2 | 35% | Non-Toxic | MIC (Escherichia coli): > 250 µg/mL; MIC (Pseudomonas aeruginosa): > 250 µg/mL; MIC (Bacillus cereus): 31.3 µg/mL (≈ 128 µM)
39 | CCCCn1cncc1-c1ccc(C(C)(C)C)cc1 | 56% | Non-Toxic | MIC (Escherichia coli): 250 µg/mL (≈ 975 µM); MIC (Candida tropicalis; ATCC 750, 48 h): 31.3 µg/mL (≈ 122 µM); inhibition [1]: Active; MIC (Pseudomonas aeruginosa): 250 µg/mL (≈ 975 µM); MIC (Bacillus cereus): 31.3 µg/mL (≈ 122 µM); CC50 at 120 h [2]: 23.9 µM; MIC (Staphylococcus aureus): 15.6 µg/mL (≈ 60.8 µM); IC50 [4]: 22.4 µM; Activity [5]: inactive; EC50 [6]: > 10 µM
40 | CC(C)(C)c1ccc(-c2cnco2)cc1 | 35% | Non-Toxic | –
41 | Cc1ccc(S(=O)(=O)[C@H]2N=CO[C@@H]2c2ccc3c(c2)OCO3)cc1 (racemic) | 33% | Non-Toxic | –
